From ChEMBL document CHEMBL5365483, “Structure-Based Drug Design of Novel Triaminotriazine Derivatives as Orally Bioavailable IDH2R140Q Inhibitors with High Selectivity and Reduced hERG Inhibitory Activity for the Treatment of Acute Myeloid Leukemia” (J Med Chem, 2023)

How the values were obtained:
in vivo [1] = conditions: BALB/c, mouse, po, 25 mg/kg
in vivo [2] = conditions: BALB/c, mouse, iv, 5 mg/kg
in vivo [3] = conditions: BALB/c, mouse, po, 25 mg/kg; remark: listed apart in the source
in vivo [4] = conditions: BALB/c, mouse, iv, 5 mg/kg; remark: listed apart in the source
in vivo [5] = conditions: BALB/c, mouse, po, 25 mg/kg; remark: listed apart in the source
in vivo [6] = conditions: BALB/c, mouse, iv, 5 mg/kg; remark: listed apart in the source
in vivo [7] = conditions: BALB/c, mouse, iv, 5 mg/kg; remark: listed apart in the source
in vivo [8] = conditions: BALB/c, mouse, po, 25 mg/kg; remark: listed apart in the source
in vivo [9] = conditions: BALB/c, mouse, iv, 5 mg/kg; remark: listed apart in the source
in vivo [10] = conditions: BALB/c, mouse, po, 25 mg/kg; remark: listed apart in the source
in vitro [11] = conditions: human, liver microsomes
in vitro [12] = conditions: human, liver microsomes; remark: listed apart in the source
in vitro [13] = conditions: mouse, liver microsomes
in vitro [14] = conditions: mouse, liver microsomes; remark: listed apart in the source

Compound: CC(C)(O)CNc1nc(Nc2ccnc(C(F)(F)F)c2)nc(-c2cccc(C(F)(F)F)n2)n1 [ENASIDENIB]
- MRT at 72 h (in vivo [1]): 7.45 h
- AUC(0-inf) at 24 h (in vivo [2]): 14000 ng·h/mL
- half-life at 72 h (in vivo [3]): 6.98 h
- half-life at 24 h (in vivo [4]): 2.71 h
- bioavailability at 72 h (in vivo [5]): 125%
- Cmax at 24 h (in vivo [6]): 2840 ng/mL
- clearance at 24 h (in vivo [7]): 5.99 mL/min/kg
- AUC(0-inf) at 72 h (in vivo [8]): 87600 ng·h/mL
- MRT at 24 h (in vivo [9]): 4.9 h
- Cmax at 72 h (in vivo [10]): 6390 ng/mL

Compound: O=C(O)Cc1ccccc1Nc1c(Cl)cccc1Cl [DICLOFENAC]
- CLint scaled at 1 h, 1 µM (in vitro [11]): 302 mL/min/kg
- half-life at 1 h, 1 µM (in vitro [12]): 0.0883 h
- half-life at 1 h, 1 µM (in vitro [13]): 0.402 h
- CLint scaled at 1 h, 1 µM (in vitro [14]): 226 mL/min/kg

Compound: CCOc1ccc(NC(C)=O)cc1 [PHENACETIN]
- CLint scaled at 1 h, 1 µM (in vitro [11]): 23.6 mL/min/kg
- half-life at 1 h, 1 µM (in vitro [12]): 1.13 h
- half-life at 1 h, 1 µM (in vitro [13]): 0.0567 h
- CLint scaled at 1 h, 1 µM (in vitro [14]): 1590 mL/min/kg
